Some test systems named below: HCT-15 colon; OVCAR-5 ovarian; HCC-2998 colon; TK-10 renal; SF-295 CNS; SK-MEL-28 melanoma; SK-MEL-5 melanoma; MCF7 breast.
Holding throughout (test): DTP human tumour cell line panel, 48 h

Each structure is given as a SMILES string.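 Following 48 hours of exposure in 96-well plates, responses at five concentrations were used to interpolate endpoints linearly. The concentration for 50% growth inhibition is given as GI50. TGI denotes the concentration required for complete inhibition of growth.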

In the case of `COc1cc2c3cc1Oc1c(OC)c(OC)cc4c1[C@@H](Cc1ccc(O)c(c1)Oc1ccc(cc1)C[C@@H]3N(C)CC2)N(C)CC4`, the TGI is 27.2 µM with HCT-15 colon; over 100 µM in the assay on OVCAR-5 ovarian; 20.4 µM in the assay with HCC-2998 colon; 35.4 µM in the assay with TK-10 renal; 30.9 µM in the assay with SF-295 CNS; 29.5 µM in the assay on SK-MEL-28 melanoma. Further, the concentration for total growth inhibition (TGI) in the assay on SK-MEL-5 melanoma turned out to be 11.8 µM.

Regarding `C[C@]12Cc3conc3C(O)=C1CC[C@@H]1C2CC[C@@]2(C)C1CC[C@]2(C)O` (stereo partly specified), the concentration for total growth inhibition (TGI) in the assay on HCT-15 colon is over 100 µM; with OVCAR-5 ovarian, 92.2 µM; with HCC-2998 colon it was 62.1 µM; in the assay with TK-10 renal, 71.9 µM; with SF-295 CNS it was 74.3 µM; in the assay on SK-MEL-28 melanoma it was 83 µM. The same compound displayed a TGI with SK-MEL-5 melanoma of 30.7 µM.

In the case of `O=[N+]([O-])c1cccc(S(=O)(=O)N/N=C/c2cc(I)cc([N+](=O)[O-])c2O)c1`, the TGI in the assay with HCT-15 colon is 65.5 µM; with OVCAR-5 ovarian, over 100 µM; in the assay on HCC-2998 colon, over 100 µM; in the assay with TK-10 renal, 95.2 µM; in the assay on SF-295 CNS, 98.7 µM; in the assay on SK-MEL-28 melanoma, 87.9 µM. In addition, in the assay with SK-MEL-5 melanoma, the TGI was determined as 44 µM.

For `COc1ccc(NC(=O)c2oc3cc(O)ccc3c(=O)c2C)c([N+](=O)[O-])c1`, the TGI in the assay with HCT-15 colon, with OVCAR-5 ovarian, in the assay with HCC-2998 colon, with TK-10 renal, in the assay on SF-295 CNS and with SK-MEL-28 melanoma was over 100 µM in each case. The TGI in the assay on SK-MEL-5 melanoma is over 100 µM.

For the compound `Nn1c(-c2cccc(Cl)c2)nc2ccccc2c1=O`, the TGI in the assay on HCT-15 colon, with OVCAR-5 ovarian, in the assay on HCC-2998 colon, with TK-10 renal, in the assay on SF-295 CNS and in the assay on SK-MEL-28 melanoma was over 100 µM each time. This compound had a TGI in the assay on SK-MEL-5 melanoma of over 100 µM.

For `CCCCCCCCC(C)CCCCCCCCC(=O)OCC(COP(=O)([O-])OCC[N+](C)(C)C)OC(=O)CCCCCCCCC(C)CCCCCCCC` (stereo unspecified), the total growth inhibition concentration (TGI) in the assay on HCT-15 colon, in the assay on OVCAR-5 ovarian, with HCC-2998 colon, in the assay with TK-10 renal, in the assay with SF-295 CNS and in the assay with SK-MEL-28 melanoma was over 100 µM in each case. In the assay with SK-MEL-5 melanoma, this compound returned a TGI of over 100 µM.

As to `CC(C)N1C(C)[C@@H](c2ccccc2)O[P@@]1(=O)CC1=CCCCC1` (stereo partly specified), the TGI in the assay with HCT-15 colon, in the assay with OVCAR-5 ovarian, in the assay on HCC-2998 colon, with TK-10 renal, in the assay on SF-295 CNS and in the assay on SK-MEL-28 melanoma was over 100 µM in each case. Besides, in the assay on SK-MEL-5 melanoma, the TGI was over 100 µM.

As to `COc1ccc2c(CCCc3ccc(Cl)cc3Cl)c3[n+](cc2c1OC)CCc1cc2c(cc1-3)OCO2`, the GI50 with HCT-15 colon was 1.72 µM; with OVCAR-5 ovarian, 1.13 µM; in the assay on HCC-2998 colon, 0.638 µM; in the assay with SK-MEL-28 melanoma it was 0.492 µM; with SK-MEL-5 melanoma it was 0.212 µM. The TGI is 3.29 µM in the assay with HCT-15 colon; 2.62 µM in the assay on OVCAR-5 ovarian; 1.95 µM with HCC-2998 colon; 1.83 µM in the assay with SK-MEL-28 melanoma; 0.561 µM in the assay on SK-MEL-5 melanoma.

For the compound `CCC[CH2][Sn]([CH2]CCC)([O]C(=O)c1cc(F)ccc1F)[O]C(=O)c1cc(F)ccc1F`, the GI50 is 1.18 µM in the assay with HCT-15 colon; 1.91 µM in the assay on OVCAR-5 ovarian; 1.43 µM in the assay with HCC-2998 colon; 1.64 µM in the assay with TK-10 renal; 1.77 µM in the assay on SF-295 CNS; 1.09 µM in the assay with SK-MEL-28 melanoma. The GI50 in the assay on SK-MEL-5 melanoma was 1.57 µM. For the same compound, the TGI in the assay with HCT-15 colon was found to be 2.44 µM; with OVCAR-5 ovarian it was 3.31 µM; with HCC-2998 colon it was 2.76 µM; with TK-10 renal, 3.01 µM; in the assay with SF-295 CNS, 3.17 µM; in the assay with SK-MEL-28 melanoma it was 2.32 µM. In the assay with SK-MEL-5 melanoma, this compound had a TGI of 2.91 µM.

Consider `COc1cc(C2c3cc4c(cc3[C@@H](Nc3ccc([N+](=O)[O-])cc3)C3COC(=O)[C@H]23)OCO4)cc(OC)c1O` (stereo partly specified), for which the TGI in the assay with HCT-15 colon is 19.6 µM; in the assay with MCF7 breast it was over 43.1 µM; with OVCAR-5 ovarian, 13.6 µM; in the assay with HCC-2998 colon, 7.01 µM; in the assay on TK-10 renal, 6.97 µM; in the assay with SF-295 CNS it was 4.85 µM. Besides, the TGI amounted to 34.8 µM with SK-MEL-28 melanoma and 3.94 µM with SK-MEL-5 melanoma. The GI50 was 0.722 µM in the assay with OVCAR-5 ovarian and 0.74 µM in the assay with SK-MEL-5 melanoma.

On to `O=C(COC(=O)c1cccc2c(=O)c3ccccc3[nH]c12)Nc1ccc(Cl)cc1`, for which the total growth inhibition concentration (TGI) in the assay with HCC-2998 colon was over 100 µM; in the assay on TK-10 renal, 46.5 µM; in the assay with SF-295 CNS it was over 100 µM; in the assay on SK-MEL-28 melanoma it was over 100 µM; with SK-MEL-5 melanoma it was over 100 µM.

Consider `O=NN1CCN=C1c1ccc([N+](=O)[O-])cc1`, for which the TGI in the assay with HCT-15 colon, in the assay on OVCAR-5 ovarian, in the assay with HCC-2998 colon, with TK-10 renal, with SF-295 CNS and in the assay with SK-MEL-28 melanoma was over 100 µM throughout. The compound further displayed a TGI with SK-MEL-5 melanoma of over 100 µM.

With `Cc1ccc(C2[C@H]3C(=O)N(c4ccc(Cc5ccc(N6C(=O)[C@@H]7ON(c8ccccc8)C(c8ccc(C)cc8)[C@@H]7C6=O)cc5)cc4)C(=O)[C@H]3ON2c2ccccc2)cc1` (stereo partly specified), the TGI in the assay with HCT-15 colon, in the assay with OVCAR-5 ovarian, in the assay with HCC-2998 colon, with SF-295 CNS, in the assay on SK-MEL-28 melanoma and in the assay on SK-MEL-5 melanoma was over 100 µM in each case.

Turning to `CN(CCCN1C(=O)c2cccc3cc([N+](=O)[O-])cc(c23)C1=O)CCN(C)CCCN1C(=O)c2cccc3cc([N+](=O)[O-])cc(c23)C1=O`, the TGI with HCT-15 colon, in the assay with OVCAR-5 ovarian, in the assay on HCC-2998 colon, in the assay on TK-10 renal, in the assay with SF-295 CNS and in the assay on SK-MEL-28 melanoma was over 39.3 µM throughout. This compound showed a total growth inhibition concentration (TGI) in the assay on SK-MEL-5 melanoma of over 39.3 µM.

As for `O=C1NC2C3CC(OCc4ccccc4)(OCc4ccccc4)C2OC3O1` (stereo unspecified), the TGI with HCT-15 colon, with OVCAR-5 ovarian, in the assay with HCC-2998 colon, with SF-295 CNS, in the assay with SK-MEL-28 melanoma and in the assay with SK-MEL-5 melanoma was over 50 µM throughout.

`Cc1ccc(C)c(NC(=O)C(=O)C2C(=O)N(c3ccccc3)N=C2N)c1` (stereo unspecified): the TGI with HCT-15 colon, with OVCAR-5 ovarian, in the assay with HCC-2998 colon, with TK-10 renal, in the assay with SF-295 CNS and in the assay on SK-MEL-28 melanoma was over 100 µM in each case. Moreover, the TGI with SK-MEL-5 melanoma was over 100 µM.

The record behind these values is PubChem BioAssay (NCI).
